In paper PMC3494675, “Structure-Function Analysis of the Glioma Targeting NFL-TBS.40-63 Peptide Corresponding to the Tubulin-Binding Site on the Light Neurofilament Subunit” (PLoS ONE, 2012):
Square brackets hold non-standard residues; d marks the D form. Peptide text beside a SMILES is read from it. * marks the point of attachment. Biotin = O=C1N[C@H]2[C@H](CS[C@H]2CCCCC(=O)*)N1; pS = N[C@@H](COP(=O)(O)O)C(=O)O

Assays:
[1] = tested on: T98G human glioblastoma cells; assay: Peptide incorporation into T98G cells (immunocytochemistry, cell counting); format: cell-based; conditions: 6 hours; for Peptide incorporation (% of cells): T98G cells, 10 µM biotinylated peptide, Alexa-labeled avidin/streptavidin fluorescence microscopy, minimum 200 cells per experiment, mean ± S.E.M., triplicated; for Cell penetration / internalization in T98G cells (in words): 10 µM, immunocytochemistry, compared to original NFL-TBS.40-63
Experimental: (§1) Cells containing the biotinylated peptide were detected using Alexa-labeled avidin (green fluorescence) and those displaying a normal or a destroyed MT network were detected with an anti-tubulin antibody (red fluorescence) ( Figure 1A-B ). Then, we counted a minimum of 200 cells per slide containing or not the peptide, and with a normal or destroyed microtubule network ( Figure 1C ). As illustrated on Figure 1A glioblastoma cells contain a rich MT network. […] Cells were plated on cover slips and cultured in media containing biotinylated peptides (10 μM) for 6 hours. […] The cells were then incubated during 10 min in a 0.5% triton X-100 permeabilization solution, and washed 3 times in PBS. Next, they were incubated in a blocking solution (PBS 5% BSA) for 15 min, then incubated with mouse anti-ß-tubulin antibody (Sigma) 1/200 overnight. Tubulin and biotinylated peptides were localized using respectively Alexa 568 nm anti-mouse antibody and streptavidin Alexa 488 nm (Molecular Probes) 1/200 for 1 hour, followed by washing in PBS. […] Sigma) for 5 min, washed twice with PBS, then cover slips were mounted with an antifading solution. Observations were performed with an Olympus confocal microscope (BX50) using Fluoview.3.1. Software or a Leica DMI6000 inverted microscope and analyzed with Metamorph 7.1.7.0. software. We counted cells containing the peptide and cells displaying a destroyed MT network. Experiments were repeated at least three times, and a minimum of 200 cells was scored during each experiment.

[2] = tested on: T98G human glioblastoma cells; assay: Disintegration of the microtubule network in T98G cells (anti-tubulin immunostaining, cell counting); format: cell-based; conditions: 6 hours; for Disintegration of MT (% of cells): T98G cells, 10 µM biotinylated peptide, anti-tubulin immunostaining, minimum 200 cells per experiment, mean ± S.E.M., triplicated; for Effect on MT network of T98G / glioma cells (in words): 10 µM, immunocytochemistry
Experimental: as §1

Row | SMILES | Peptide incorporation (% of cells) [1] | Disintegration of MT (% of cells) [2] | Cell penetration / internalization in T98G cells (in words) [1] | Effect on MT network of T98G / glioma cells (in words) [2]
1 | CC(C)C[C@H](NC(=O)[C@H](CO)NC(=O)[C@H](CO)NC(=O)[C@H](CO)NC(=O)[C@@H](NC(=O)[C@H](C)NC(=O)[C@H](C)NC(=O)[C@H](CO)NC(=O)[C@H](Cc1ccc(O)cc1)NC(=O)[C@H](CO)NC(=O)[C@H](CO)NC(=O)[C@H](Cc1ccc(O)cc1)NC(=O)CCCC[C@@H]1SC[C@@H]2NC(=O)N[C@@H]21)C(C)C)C(=O)N[C@@H](CO)C(=O)N[C@H](C(=O)N[C@@H](CCCNC(=N)N)C(=O)N[C@@H](CCCNC(=N)N)C(=O)N[C@@H](CO)C(=O)N[C@@H](Cc1ccc(O)cc1)C(=O)N[C@@H](CO)C(=O)N[C@@H](CO)C(=O)N[C@@H](CO)C(=O)N[C@@H](CO)C(=O)NCC(=O)N[C@@H](CO)C(N)=O)C(C)C [Pro7Ala] (Biotin-YSSYSAAVSSSLSVRRSYSSSSGS-NH2) | 16.7±4.6 % of cells | 26.6±5.9 % of cells |  | 
2 | CC(C)C[C@H](NC(=O)[C@H](CO)NC(=O)[C@H](CO)NC(=O)[C@H](CO)NC(=O)[C@@H](NC(=O)[C@@H]1CCCN1C(=O)[C@H](C)NC(=O)[C@H](CO)NC(=O)[C@H](Cc1ccc(O)cc1)NC(=O)[C@H](CO)NC(=O)[C@H](CO)NC(=O)[C@H](Cc1ccc(O)cc1)NC(=O)CCCC[C@@H]1SC[C@@H]2NC(=O)N[C@@H]21)C(C)C)C(=O)N[C@@H](CO)C(=O)N[C@H](C(=O)N[C@@H](CCCNC(=N)N)C(=O)N[C@@H](C)C(=O)N[C@@H](CO)C(=O)N[C@@H](Cc1ccc(O)cc1)C(=O)N[C@@H](CO)C(=O)N[C@@H](CO)C(=O)N[C@@H](CO)C(=O)N[C@@H](CO)C(=O)NCC(=O)N[C@@H](CO)C(N)=O)C(C)C [Arg16Ala] (Biotin-YSSYSAPVSSSLSVRASYSSSSGS-NH2) | 0 % of cells | 15.6±3.0 % of cells |  | 
3 | CC(C)C[C@H](NC(=O)[C@H](CO)NC(=O)[C@H](CO)NC(=O)[C@H](CO)NC(=O)[C@@H](NC(=O)[C@@H]1CCCN1C(=O)[C@H](C)NC(=O)[C@H](CO)NC(=O)[C@H](Cc1ccc(O)cc1)NC(=O)[C@H](CO)NC(=O)[C@H](CO)NC(=O)[C@H](Cc1ccc(O)cc1)NC(=O)CCCC[C@@H]1SC[C@@H]2NC(=O)N[C@@H]21)C(C)C)C(=O)N[C@@H](CO)C(=O)N[C@H](C(=O)N[C@@H](C)C(=O)N[C@@H](CCCNC(=N)N)C(=O)N[C@@H](CO)C(=O)N[C@@H](Cc1ccc(O)cc1)C(=O)N[C@@H](CO)C(=O)N[C@@H](CO)C(=O)N[C@@H](CO)C(=O)N[C@@H](CO)C(=O)NCC(=O)N[C@@H](CO)C(N)=O)C(C)C [Arg15Ala] (Biotin-YSSYSAPVSSSLSVARSYSSSSGS-NH2) | 18.1±1.3 % of cells | 25.5±6.3 % of cells |  | 
4 | CC(C)C[C@H](NC(=O)[C@H](CO)NC(=O)[C@H](CO)NC(=O)[C@H](CO)NC(=O)[C@@H](NC(=O)[C@@H]1CCCN1C(=O)[C@H](C)NC(=O)[C@H](CO)NC(=O)[C@H](Cc1ccc(O)cc1)NC(=O)[C@H](CO)NC(=O)[C@H](CO)NC(=O)[C@H](Cc1ccc(O)cc1)NC(=O)CCCC[C@@H]1SC[C@@H]2NC(=O)N[C@@H]21)C(C)C)C(=O)N[C@@H](CO)C(=O)N[C@H](C(=O)N[C@@H](CCCNC(=N)N)C(=O)N[C@@H](CCCNC(=N)N)C(=O)N[C@@H](COP(=O)(O)O)C(=O)N[C@@H](Cc1ccc(O)cc1)C(=O)N[C@@H](COP(=O)(O)O)C(=O)N[C@@H](CO)C(=O)N[C@@H](CO)C(=O)N[C@@H](CO)C(=O)NCC(=O)N[C@@H](CO)C(N)=O)C(C)C [Ser17,19SerP] (Biotin-YSSYSAPVSSSLSVRR[pS]Y[pS]SSSGS-NH2) | 32±2.1 % of cells | 11.0±3.0 % of cells | decreased internalization | not altered
5 | CC(C)C[C@H](NC(=O)[C@H](CO)NC(=O)[C@H](CO)NC(=O)[C@H](CO)NC(=O)[C@@H](NC(=O)[C@@H]1CCCN1C(=O)[C@H](C)NC(=O)[C@H](CO)NC(=O)[C@H](Cc1ccc(O)cc1)NC(=O)[C@H](CO)NC(=O)[C@H](CO)NC(=O)[C@H](Cc1ccc(O)cc1)NC(=O)CCCC[C@@H]1SC[C@@H]2NC(=O)N[C@@H]21)C(C)C)C(=O)N[C@@H](CO)C(=O)N[C@H](C(=O)N[C@@H](CCCNC(=N)N)C(=O)N[C@@H](CCCNC(=N)N)C(=O)N[C@@H](CC(=O)O)C(=O)N[C@@H](Cc1ccc(O)cc1)C(=O)N[C@@H](CO)C(=O)N[C@@H](CO)C(=O)N[C@@H](CO)C(=O)N[C@@H](CO)C(=O)NCC(=O)N[C@@H](CO)C(N)=O)C(C)C [Ser17Asp] (Biotin-YSSYSAPVSSSLSVRRDYSSSSGS-NH2) | 31.3±11.2 % of cells | 22.2±3.4 % of cells | decreased internalization | not altered
6 | CC(C)C[C@H](NC(=O)[C@H](CO)NC(=O)[C@H](CO)NC(=O)[C@H](CO)NC(=O)[C@@H](NC(=O)[C@@H]1CCCN1C(=O)[C@H](C)NC(=O)[C@H](CO)NC(=O)[C@H](Cc1ccc(O)cc1)NC(=O)[C@H](CO)NC(=O)[C@H](CO)NC(=O)[C@H](Cc1ccc(O)cc1)NC(=O)CCCC[C@@H]1SC[C@@H]2NC(=O)N[C@@H]21)C(C)C)C(=O)N[C@@H](C)C(=O)N[C@H](C(=O)N[C@@H](CCCNC(=N)N)C(=O)N[C@@H](CCCNC(=N)N)C(=O)N[C@@H](CO)C(=O)N[C@@H](Cc1ccc(O)cc1)C(=O)N[C@@H](CO)C(=O)N[C@@H](CO)C(=O)N[C@@H](CO)C(=O)N[C@@H](CO)C(=O)NCC(=O)N[C@@H](CO)C(N)=O)C(C)C [Ser13Ala] (Biotin-YSSYSAPVSSSLAVRRSYSSSSGS-NH2) | 12.2±0.8 % of cells | 16.6±5.2 % of cells |  | 
7 | CC(C)C[C@H](NC(=O)[C@H](CO)NC(=O)[C@H](CO)NC(=O)[C@H](CO)NC(=O)[C@@H](NC(=O)[C@@H]1CCCN1C(=O)[C@H](C)NC(=O)[C@H](CO)NC(=O)[C@H](Cc1ccc(O)cc1)NC(=O)[C@H](CO)NC(=O)[C@H](C)NC(=O)[C@H](Cc1ccc(O)cc1)NC(=O)CCCC[C@@H]1SC[C@@H]2NC(=O)N[C@@H]21)C(C)C)C(=O)N[C@@H](CO)C(=O)N[C@H](C(=O)N[C@@H](CCCNC(=N)N)C(=O)N[C@@H](CCCNC(=N)N)C(=O)N[C@@H](CO)C(=O)N[C@@H](Cc1ccc(O)cc1)C(=O)N[C@@H](CO)C(=O)N[C@@H](CO)C(=O)N[C@@H](CO)C(=O)N[C@@H](CO)C(=O)NCC(=O)N[C@@H](CO)C(N)=O)C(C)C [Ser2Ala] (Biotin-YASYSAPVSSSLSVRRSYSSSSGS-NH2) | 5.9±6.4 % of cells | 23.5±1.1 % of cells |  | 
8 | CC(C)C[C@H](NC(=O)[C@H](CO)NC(=O)[C@H](CO)NC(=O)[C@H](CO)NC(=O)[C@@H](NC(=O)[C@@H]1CCCN1C(=O)[C@H](C)NC(=O)[C@H](CO)NC(=O)[C@H](Cc1ccc(O)cc1)NC(=O)[C@H](CO)NC(=O)[C@H](CO)NC(=O)[C@H](Cc1ccc(O)cc1)NC(=O)CCCC[C@@H]1SC[C@@H]2NC(=O)N[C@@H]21)C(C)C)C(=O)N[C@@H](CO)C(=O)N[C@@H](C)C(=O)N[C@@H](CCCNC(=N)N)C(=O)N[C@@H](CCCNC(=N)N)C(=O)N[C@@H](CO)C(=O)N[C@@H](Cc1ccc(O)cc1)C(=O)N[C@@H](CO)C(=O)N[C@@H](CO)C(=O)N[C@@H](CO)C(=O)N[C@@H](CO)C(=O)NCC(=O)N[C@@H](CO)C(N)=O [Val14Ala] (Biotin-YSSYSAPVSSSLSARRSYSSSSGS-NH2) | 0 % of cells | 13.8±3.9 % of cells | fails to enter in cells | does not affect the MT network
9 | CC(C)C[C@H](NC(=O)[C@H](CO)NC(=O)[C@H](CO)NC(=O)[C@H](CO)NC(=O)[C@@H](NC(=O)[C@@H]1CCCN1C(=O)[C@H](C)NC(=O)[C@H](CO)NC(=O)[C@H](Cc1ccc(O)cc1)NC(=O)[C@H](CO)NC(=O)[C@H](CO)NC(=O)[C@H](Cc1ccc(O)cc1)NC(=O)CCCC[C@@H]1SC[C@@H]2NC(=O)N[C@@H]21)C(C)C)C(=O)N[C@@H](CO)C(=O)N[C@H](C(=O)N[C@@H](CCCNC(=N)N)C(=O)N[C@@H](CCCNC(=N)N)C(=O)N[C@@H](CO)C(=O)N[C@@H](C)C(=O)N[C@@H](CO)C(=O)N[C@@H](CO)C(=O)N[C@@H](CO)C(=O)N[C@@H](CO)C(=O)NCC(=O)N[C@@H](CO)C(N)=O)C(C)C [Tyr18Ala] (Biotin-YSSYSAPVSSSLSVRRSASSSSGS-NH2) | 7.9±0.9 % of cells | 16.0±2.8 % of cells |  | 
